# Test results as given in ChEMBL document CHEMBL1201862, “PubChem BioAssay data set” (2004).
# Active and inactive are the calls of the source.
# Legend:
# [1] = biological target: Photoreceptor-specific nuclear receptor (Homo sapiens, UniProt Q9Y5X4); test: ligands suppressing NR2E3 nuclear receptor activity – biochemical, TR-FRET, dose response (AID 463256); assay type: functional
# [2] = biological target: Peroxisome proliferator-activated receptor gamma/Nuclear receptor corepressor 2 (Homo sapiens, UniProt P37231+Q9Y618); test: Counterscreen for NR2E3 inverse agonists: TR-FRET-based biochemical high throughput dose response assay to identify inverse agonists of the interaction between peroxisome proliferator-activated receptor gamma (PPARg) and nuclear receptor co-repressor 2 (NCOR2).; assay type: functional
# [3] = biological target: Beta-galactosidase (Escherichia coli, UniProt Q8VNN2); test: Dose response counterscreen for EBI2 assay utilizing the enzyme, b-galactosidase.; assay type: functional
# [4] = biological target: Prothrombin (Homo sapiens, UniProt P00734); test: Thrombin 1536 HTS Dose Response Confirmation. [Related pubchem assays: 1046 (Thrombin 1536 HTS; hits were confirmed in this assay)]; assay type: functional
# [5] = biological target: Albumin (Bos taurus, UniProt P02769); test: Counterscreen for inhibitors of T-cell receptor (TCR)-CD3 interaction: Fluorescence-based biochemical high throughput dose response assay to identify inhibitors of T-cell receptor (TCR)-CD3 interaction using a TAMRA-labeled BSA probe.; assay type: functional
# [6] = biological target: Major prion protein (Homo sapiens, UniProt P04156); assay type: functional, cell-based
# [7] = cells
# [8] = biological target: Large T antigen (Simian virus 40, UniProt P03070); assay type: functional, Betapolyomavirus macacae;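 further: Confirmatory-stage PubChem screen for compounds that inhibit SV40 T antigen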
# [9] = P. falciparum Dd2 growth inhibitors, dose response, SYBR Green, cherry-picked samples (AID 1159567); assay type: functional, cell-based
# [10] = growth inhibition of yeast DHODH-expressing 3D7 parasites – SYBR Green, dry powder samples, dose response (AID 1159570); assay type: functional, cell-based;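 further: parasite growth measured after 72 hours of compound exposure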
# [11] = growth inhibition of PfATP4-mutant resistant parasites – NITD609-resistant line, SYBR Green, dry powder, dose response (AID 1159571); assay type: functional, cell-based;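 further: parasites synchronized at ring stage by sorbitol before testing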
# [12] = Dd2 malaria parasite growth inhibition potency – SYBR Green, dry powder samples, dose response (AID 1159566); assay type: functional, cell-based;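 further: potency for growth inhibition with lower SYBR green DNA signal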
# [13] = biological target: Nonstructural protein 1 (Influenza A virus, UniProt Q194T2); assay type: functional, Influenza A virus (A/California/07/2009(H1N1))
# [14] = test system: INS1; test: INS-1E survival protection against cytokine death – cell-based, luminescence, retest, dose response (AID 449756); assay type: functional; details: Rattus norvegicus;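 further: cell death triggered by IL-1 beta plus TNF-alpha plus IFN-gamma mixture; protective hits raise ATP signal compared with cytokine alone wells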
# [15] = test system: HEK293; test: EBV LMP1 TES2 canonical NF-kB signalling blockers – cell-based, HEK293, luciferase, cherry-pick, dose response (AID 588343); assay type: functional; details: Homo sapiens
# [16] = biological target: T1, Voltage-gated N-type calcium channel alpha-1B subunit/Amyloid beta A4 precursor protein-binding family A member 1 (Homo sapiens, UniProt Q00975+Q02410); assay type: protein assay
# [17] = biological target: T2, RNA-binding protein pos-1 (Caenorhabditis elegans, UniProt G5EF15); test: disruptors of C. elegans POS-1 RNA interaction – biochemical, fluorescence polarization, dose response (AID 1964);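 further: purified POS-1 fused to maltose binding protein made in E. coli; potency of compounds blocking POS-1 binding to fluorescent RNA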
# T2 sequence (G5EF15 whole entry): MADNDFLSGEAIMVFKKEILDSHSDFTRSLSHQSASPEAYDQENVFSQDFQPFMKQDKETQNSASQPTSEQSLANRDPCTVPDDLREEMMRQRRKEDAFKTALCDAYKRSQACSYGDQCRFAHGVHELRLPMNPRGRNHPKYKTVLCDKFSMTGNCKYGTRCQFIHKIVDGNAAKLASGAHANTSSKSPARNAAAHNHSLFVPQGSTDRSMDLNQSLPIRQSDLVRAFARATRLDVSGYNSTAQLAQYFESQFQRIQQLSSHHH
# [18] = biological target: T3, Zinc finger protein mex-5 (Caenorhabditis elegans, UniProt Q9XUB2); test: potency of MEX-5 RNA-binding blockers – biochemical, C. elegans, fluorescence polarization, dose response (AID 1960)
# T3 sequence (Q9XUB2 whole entry): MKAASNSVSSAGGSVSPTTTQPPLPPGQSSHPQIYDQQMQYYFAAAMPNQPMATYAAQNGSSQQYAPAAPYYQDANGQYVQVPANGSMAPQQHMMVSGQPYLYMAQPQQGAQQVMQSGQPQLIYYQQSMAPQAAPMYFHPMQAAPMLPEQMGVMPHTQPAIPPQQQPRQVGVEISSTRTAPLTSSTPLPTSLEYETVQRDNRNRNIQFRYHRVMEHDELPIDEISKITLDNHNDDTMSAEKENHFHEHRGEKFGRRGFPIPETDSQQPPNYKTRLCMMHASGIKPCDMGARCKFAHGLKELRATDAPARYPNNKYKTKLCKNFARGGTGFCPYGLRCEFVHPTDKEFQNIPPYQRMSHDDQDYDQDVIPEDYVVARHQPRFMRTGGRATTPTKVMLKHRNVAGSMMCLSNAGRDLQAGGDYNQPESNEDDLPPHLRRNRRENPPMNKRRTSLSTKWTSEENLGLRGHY
# [19] = biological target: T1, Voltage-gated N-type calcium channel alpha-1B subunit/Amyloid beta A4 precursor protein-binding family A member 1; assay type: protein assay; remark: listed apart in the source
# [20] = biological target: DNA dC->dU-editing enzyme APOBEC-3G (Homo sapiens, UniProt Q9HC16); test: Dose Response confirmation of small molecule APOBEC3G DNA Deaminase Inhibitors via a fluorescence-based single-stranded DNA deaminase assay. [Related pubchem assays (depositor defined):AID493012, AID493028]; assay type: functional
# [21] = biological target: T4, Polyadenylate-binding protein 1 (Homo sapiens, UniProt P11940); test: MLLE binding blockers, Cy5 peptide tracer – biochemical, fluorescence polarization, Cy5-PAM2 peptide, secondary, miRNA deadenylation inhibitor project, dose response (AID 602260); assay type: functional; details: read-out: IC50_Mean
# [22] = biological target: T5, Calpain-2 catalytic subunit (Sus scrofa, UniProt P43367); test: m-calpain protease blockers, concentration series – biochemical, fluorogenic peptide substrate, dose response (AID 1420); assay type: functional
# T5 sequence (P43367 whole entry): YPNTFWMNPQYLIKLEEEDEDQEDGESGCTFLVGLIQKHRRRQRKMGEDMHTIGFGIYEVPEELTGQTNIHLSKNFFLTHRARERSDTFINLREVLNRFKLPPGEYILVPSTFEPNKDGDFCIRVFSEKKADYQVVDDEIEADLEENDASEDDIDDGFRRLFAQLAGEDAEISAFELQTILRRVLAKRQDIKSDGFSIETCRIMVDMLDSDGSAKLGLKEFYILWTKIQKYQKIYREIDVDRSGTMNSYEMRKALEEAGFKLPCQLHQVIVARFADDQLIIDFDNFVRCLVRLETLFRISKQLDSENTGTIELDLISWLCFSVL
# [23] = biological target: T4, Polyadenylate-binding protein 1; test: MLLE domain peptide-binding blockers, IC50 – biochemical, fluorescence polarization, FITC-PAM2 peptide, dose response (AID 602259); assay type: functional; details: read-out: IC50_Mean
# [24] = test system: Streptococcus; test: GAS UMAA2166 growth inhibition – luminescence, BacTiterGlo, counter-screen for streptokinase expression inhibitor project, dose response (AID 1915); assay type: functional, organism-based;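 further: potency for reduction of bacterial viability or growth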
# [25] = test system: Streptococcus sp. 'group A'; test: Streptococcus pyogenes SK(-)GAS viability under kanamycin – luminescence, BacTiterGlo, confirmation, counter-screen for streptokinase expression inhibitor project, dose response (AID 1900); assay type: functional, organism-based
# [26] = blockers of HIV-1 ZM109 envelope-driven cell-cell fusion – HeLa effector, CEM target cells, luciferase, cherry-pick, dose response (AID 652058); assay type: functional, cell-based;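 further: luciferase signal from HIV-1 Env mediated cell-cell fusion of effector and target cells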
# [27] = alpha-synuclein stem-loop luciferase translation blockers – H4 neuroglioma cells, luminescence, confirmation (AID 1988); assay type: functional, cell-based
# [28] = Luminescence Cell-Based Dose Response HTS to Identify Inhibitors of 5'UTR Stem-Loop Driven Prion Protein mRNA Translation in H4 Neuroglioblastoma Cells. [Related pubchem assays: 1827 (Project Summary), 1813 (Primary HTS)]; assay type: functional
# [29] = blockers of HIV-1 envelope-mediated cell-cell fusion – cherry-pick, dose response (AID 652057); assay type: functional, cell-based
# [30] = HIV-1 AD8 envelope cell-cell fusion blockers – cherry-pick, dose response (AID 652062); assay type: functional, cell-based;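 further: luciferase signal from cell-cell fusion driven by HIV-1 clade B AD8 Env; potency is for inhibitors of fusion seen as a drop in luminescence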
# [31] = luciferase reporter signal suppression in cells – H4 neuroglioma cells, luminescence, dose response (AID 1990); assay type: functional, cell-based
# [32] = viability loss in CEM21 cells – cell-based, CellTiter-Glo luminescence, cherry-picked, cytotoxicity control for viral fusion inhibitor project, dose response (AID 652042); assay type: functional;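 further: potency for signal decrease meaning cytotoxicity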
# [33] = biological target: T6, SUMO-activating enzyme (Homo sapiens, UniProt Q9UBT2); test: blockers of UBC9-mediated SUMO conjugation – biochemical, AlphaScreen, SUMOylation inhibitor project, confirmation (AID 2018); assay type: functional
# [34] = biological target: T6, SUMO-activating enzyme; test: blockers of SAE1/SAE2–UBC9 SUMO transfer – biochemical, HTRF, uHTS, primary screen (AID 2006); assay type: protein-complex assay
structure (smiles),measurement,setting,value
O=C(COc1ccc(Br)cc1)N1CCN(c2ncccn2)CC1,IC50,[1],10.1 µM (not active)
same,IC50,[2],8.99 µM (active)
same,IC50,[3],> 80 µM (inactive)
C=CCNC(=O)/C(C#N)=C\c1cc(Cl)c(O)c(OCC)c1,IC50,[4],> 50 µM (not active)
COc1ccccc1C(=O)NNC(=O)c1ccc2ccccc2c1O,IC50,[5],> 94.2 µM (inactive)
CN1C(=O)C(C)(C)c2cc(S(=O)(=O)N3CCCC(C(=O)Nc4ccc(Cl)cc4)C3)ccc21 (stereo unspecified),IC50,[6],5.86 µM (active)
same,IC50,[7],> 138 µM (inactive)
c1ccc(-c2csc(NNC3=NCCCCC3)n2)cc1,IC50,[8],61.1 µM (active)
O=C(COC(=O)Cn1cnc2ccccc2c1=O)Nc1cc(Cl)ccc1[N+](=O)[O-],IC50,[4],3.35 µM (active)
COc1ccc(-n2nc3c(N4CCC(C(=O)NCc5ccccc5C)CC4)nnc(C)c3c2C)cc1,IC50,[1],2.01 µM (active)
same,IC50,[2],1.44 µM (active)
COc1ccc2c3c(n(C)c2c1)[C@@H](CO)N(C(=O)c1ccccc1)CC31CCN(C(=O)c2ccccc2)CC1,AC50,[9],2.56 µM (active)
same,AC50,[10],2.28 µM (active)
same,AC50,[11],1.55 µM (active)
same,AC50,[12],1.04 µM (active)
Cc1ccc(C)c(SCC(=O)OCC(=O)Nc2ccc(S(=O)(=O)N3CCOCC3)cc2)c1,IC50,[4],5.72 µM (active)
O=C(c1ccco1)n1nc(-c2cccnc2)nc1NCc1ccco1,IC50,[4],0.134 µM (active)
CC(=O)N1CCN(c2ccc(NCc3ccc(-c4ccc(Br)cc4)o3)cc2)CC1,IC50,[13],41.1 µM (active)
COc1ccc(Cc2nnc(N/N=C/c3ccc(O)cc3)nc2O)cc1OC,AC50,[14],0.946 µM (active)
same,IC50,[13],1.19 µM (active)
same,AC50,[15],4.42 µM (active)
CC(=O)c1ccc(NC(=O)CN2C(=O)/C(=C/C(C)=C/c3ccccc3)SC2=S)cc1,IC50,[5],> 94.1 µM (inactive)
Cc1c(Br)ccc(NC(=O)Cn2nc(-c3cccs3)ccc2=O)c1C,IC50,[1],7.42 µM (active)
same,IC50,[2],7.73 µM (active)
O=C1C([N+](=O)[O-])=C(O)c2cccc3cccc1c23,IC50,[16],> 56.8 µM (not active)
same,EC50,[17],12.6 µM (active)
same,EC50,[18],9.23 µM (active)
same,IC50,[19],31.2 µM (active)
O=C1C(NS(=O)(=O)c2ccccc2)=C(N2CCN(c3ccc(F)cc3)CC2)C(=O)c2ccccc21,IC50,[13],18.1 µM (active)
COc1ccc(NC2CCCN(C(=O)c3ccc(OC)cc3OC)C2)cc1 (stereo unspecified),IC50,[8],82.4 µM (active)
CCc1nc(SCC(=O)NNC(=O)c2ccc(OC)cc2)c2ccccc2n1,IC50,[6],1.72 µM (active)
same,IC50,[7],> 138 µM (inactive)
Brc1ccc2nc(-c3ccc(CN4CCC5(CC4)CNc4ccccc45)cc3)c(-c3ccccc3)nc2c1,IC50,[6],7.84 µM (active)
same,IC50,[7],> 138 µM (inactive)
COCCn1c(SCC(=O)Nc2ccc(C(N)=O)cc2)nc2c3ccccc3nc-2c1O,IC50,[16],6.77 µM (active)
same,IC50,[19],> 50 µM (inactive)
CC(=O)N(c1ccc2oc(=O)sc2c1)S(=O)(=O)c1cccs1,IC50,[8],40.1 µM (active)
CCOC(=O)c1sc(N/N=C/c2ccccc2)nc1C,IC50,[20],40.4 µM (active)
C=CCOc1ccc(C(=O)/C=C2/C(=O)Nc3ccccc32)cc1,IC50,[3],> 80 µM (inactive)
Cc1ccc(Nc2c([N+](=O)[O-])ccc3c2=NC2(CCCCC2)N=3)cc1,IC50,[21],> 66 µM (inactive)
same,IC50,[13],17.4 µM (active)
same,IC50,[22],1.58 µM (not active)
same,IC50,[23],> 66 µM (inactive)
CCCc1cc(=O)n2ncc(-c3ccc(Cl)cc3)c2[nH]1,EC50,[24],5.62 µM (active)
same,EC50,[25],1.71 µM (active)
same,AC50,[26],7.51 µM (active)
same,AC50,[14],5.79 µM (active)
same,AC50,[15],4.07 µM (active)
same,EC50,[27],10.9 µM (active)
same,EC50,[28],12.3 µM (active)
same,AC50,[29],2.65 µM (active)
same,AC50,[30],11.2 µM (active)
same,EC50,[31],11.6 µM (active)
same,AC50,[32],4.59 µM (active)
O=C(Nc1ccc2oc(-c3cccc4ccccc34)nc2c1)c1nnc[nH]1,IC50,[16],2.92 µM (active)
same,IC50,[33],3.45 µM (active)
same,IC50,[19],> 50 µM (inactive)
same,IC50,[34],11.8 µM (active)
COc1cc(NC(=O)CSc2nc(C3CC3)nc3ccccc23)cc(OC)c1,IC50,[1],5.35 µM (active)
same,IC50,[2],5.56 µM (active)
COc1cc(/C=N/NC(=O)c2ccc3c(c2)OCCO3)cc(Cl)c1O,IC50,[8],22.7 µM (active)
